CC(=O)N1CCN(c2ccc(OC[C@@H]3CO[C@@](Cn4ccnc4)(c4ccc(Cl)cc4Cl)O3)cc2)CC1 (racemic)
solubility (mole fraction)
Conditions | 293.2 K | 298.2 K | 303.2 K | 308.2 K | 313.2 K
in n-propanol | 0.0056 | 0.00703 | 0.00948 | 0.0128 | 0.0175
in water | 3.8e-07 | 4.25e-07 | 4.46e-07 | 4.8e-07 | 5.11e-07
